Results taken from article PMC5845353, “The selective cathepsin K inhibitor MIV-711 attenuates joint pathology in experimental animal models of osteoarthritis” (Journal of Translational Medicine, 2018).
Where “and” joins values, the source holds several entries; their conditions need not be identical. Equal entries are not always repeated.

System: dogs subjected to partial medial meniscectomy
Test: Dog partial medial meniscectomy study, microscopic cartilage degeneration scores
Format: in vivo
Design: key to Total Joint CD Score: sum of tibial and femoral degeneration scores (1=minimal…3=moderate)
Text: The proximal end of the left tibia and the distal end of the left femur were removed using a hacksaw and collected into 10% neutral buffered formalin. Bones were allowed to fix for 5 days and then the tissues were placed in formic acid decalcifier (5-20%). After decalcification, the surface area at risk for lesion development of the tibia (medial and lateral plateaus) and femur (medial and lateral condyles) was divided into 3 slabs (anterior to posterior) approximately 2-4 mm thick for processing, embedding, sectioning (8 µm) and staining (Toluidine Blue). The lesions are in reasonably consistent locations in all animals, therefore, the same surfaces and area were consistently embedded for all animals. Blocks containing tissue were numbered 1-3 with 1 being the most anterior piece. In all cases, the anterior aspect of the tissue was embedded down in the cassette for sectioning.
Compartmentalized lesions on medial tibia and medial femur (cartilage degeneration and osteophytes) were scored for each of the 3 (anterior to posterior) sections using the following system:
1=minimal degeneration, chondrocyte and proteoglycan loss with or without fibrillation involving the superficial zone or extending into the upper 10% of the cartilage thickness or at least 5% but not more than 10% overall total proteoglycan and cell loss in the zone if lesion is focal and deeper in some areas. Deeper and more extensive proteoglycan loss only without any evidence of chondrocyte loss and collagen damage is also given a score of 1 as this is a minor and reversible change
2=mild degeneration, chondrocyte and proteoglycan loss with fibrillation involving mainly the upper 11-25% of cartilage thickness, fibrillation generally superficial (upper 10%) while chondrocyte and proteoglycan loss extend into approximately 11-25% of the cartilage depth, or 11-25% overall chondrocyte and proteoglycan loss in the zone if lesion is focal and deeper in some areas. Deeper areas of proteoglycan loss only, without chondrocyte loss or collagen disruption (reversible changes) may be present
3=moderate degeneration, chondrocyte and proteoglycan loss with fibrillation extending well into the midzone and generally affecting 1/2 (50%) of the total cartilage thickness, fibrillation/collagen damage generally extends into upper 25% while chondrocyte and proteoglycan loss extend through 50% thickness, or 26-50% overall chondrocyte and proteoglycan loss in the zone if lesion is focal and deeper in some areas. Deeper areas of proteoglycan loss only, without chondrocyte loss or collagen disruption (reversible changes) may be present
4=marked degeneration, chondrocyte and proteoglycan loss with fibrillation extending through the mid zone through 3/4 f the depth (51-75% of cartilage thickness) but without complete (to the tidemark) loss of chondrocytes or proteoglycan, fibrillation/collagen damage generally extend through the mid zone (50% thickness) but deep zone collagen remains intact, or 51-75% overall chondrocyte and proteoglycan loss in the zone if lesion is focal and deeper in some areas. Deeper areas of proteoglycan loss only, without chondrocyte loss or collagen disruption (reversible changes) may be present
5=severe degeneration, chondrocyte and proteoglycan loss to near tidemark (76-100% of depth) with slightly less severe collagen damage or 76-100% overall chondrocyte and proteoglycan loss in the zone.
Each medial tibial plateau and medial femoral condyle anterior to posterior section was further divided visually with an ocular micrometer into fourths and numbered 1,2,3,4 with 1 being the outside and 4 being the inside quadrant. A mean score for the four levels was calculated. In addition, means of the 3 sections for each quadrant were determined in order to convey lesion severity in various axial to abaxial locations. Overall tibial and femoral values were summed for a total joint cartilage degeneration score.

[1] = individual dogs of MIV-711 group
[2] = individual dogs of MIV-711 group, score=depth (1-5), mean of 4 quadrants

For `C#C[C@@H]1CN(C(=O)[C@H](CC(C)C)NC(=O)c2ccc(-c3nc(N4CCN(C)CC4)sc3F)cc2)[C@@H]2C(=O)CO[C@H]12` [MIV-711], which “Femur Cartilage Degeneration Score Level 1” value (MIV-711 group mean) is on record?
The value was 0.57.

And the “Femur Cartilage Degeneration Score Level 2” value (MIV-711 group mean)?
Its value is 0.65.

And the “Femur Cartilage Degeneration Score Level 3” value (MIV-711 group mean)?
Its value is 0.77.

What about the “Femur Cartilage Degeneration Score Mean” value (MIV-711 group mean) of the same compound?
Its value is 0.66.

And the “Femur Cartilage Degeneration Score Zone 1” value (MIV-711 group mean)?
The value was 1.16.

What about the “Femur Cartilage Degeneration Score Zone 2” value (MIV-711 group mean) of the same compound?
The value was 1.09.

And the “Femur Cartilage Degeneration Score Zone 3” value (MIV-711 group mean)?
Its value is 0.33.

What about the “Femur Cartilage Degeneration Score Zone 4” value (MIV-711 group mean) of the same compound?
Its value is 0.07.

And the “Tibia Cartilage Degeneration Score Level 1” value (MIV-711 group mean)?
The value was 0.60.

What about the “Tibia Cartilage Degeneration Score Level 2” value (MIV-711 group mean) of the same compound?
The value was 1.22.

What about the “Tibia Cartilage Degeneration Score Level 3” value (MIV-711 group mean) of the same compound?
The value was 0.92.

And the “Tibia Cartilage Degeneration Score Mean” value (MIV-711 group mean)?
Its value is 0.91.

What about the “Tibia Cartilage Degeneration Score Zone 1” value (MIV-711 group mean) of the same compound?
The value was 0.33.

And the “Tibia Cartilage Degeneration Score Zone 2” value (MIV-711 group mean)?
The value was 1.76.

And the “Tibia Cartilage Degeneration Score Zone 3” value (MIV-711 group mean)?
Its value is 1.02.

What about the “Tibia Cartilage Degeneration Score Zone 4” value (MIV-711 group mean) of the same compound?
Its value is 0.53.

And the “Total Joint CD Score” value (MIV-711 group mean)?
The value was 1.57.

And the “% inhibition, Femur Cartilage Degeneration Score Level 1” value (MIV-711 group vs vehicle)?
Its value is 13%.

What about the “% inhibition, Femur Cartilage Degeneration Score Level 2” value (MIV-711 group vs vehicle) of the same compound?
Its value is 0%.

And the “% inhibition, Femur Cartilage Degeneration Score Level 3” value (MIV-711 group vs vehicle)?
Its value is 8%.

And the “% inhibition, Femur Cartilage Degeneration Score Mean” value (MIV-711 group vs vehicle)?
The value was 7%.

And the “% inhibition, Femur Cartilage Degeneration Score Zone 1” value (MIV-711 group vs vehicle)?
Its value is -6%.

And the “% inhibition, Femur Cartilage Degeneration Score Zone 2” value (MIV-711 group vs vehicle)?
The value was 6%.

What about the “% inhibition, Femur Cartilage Degeneration Score Zone 3” value (MIV-711 group vs vehicle) of the same compound?
The value was 32%.

And the “% inhibition, Femur Cartilage Degeneration Score Zone 4” value (MIV-711 group vs vehicle)?
The value was 40%.

What about the “% inhibition, Tibia Cartilage Degeneration Score Level 1” value (MIV-711 group vs vehicle) of the same compound?
The value was 41%.

And the “% inhibition, Tibia Cartilage Degeneration Score Level 2” value (MIV-711 group vs vehicle)?
The value was 9%.

What about the “% inhibition, Tibia Cartilage Degeneration Score Level 3” value (MIV-711 group vs vehicle) of the same compound?
The value was -38%.

And the “% inhibition, Tibia Cartilage Degeneration Score Mean” value (MIV-711 group vs vehicle)?
Its value is 9%.

What about the “% inhibition, Tibia Cartilage Degeneration Score Zone 1” value (MIV-711 group vs vehicle) of the same compound?
Its value is 48%.

And the “% inhibition, Tibia Cartilage Degeneration Score Zone 2” value (MIV-711 group vs vehicle)?
The value was 0%.

And the “% inhibition, Tibia Cartilage Degeneration Score Zone 3” value (MIV-711 group vs vehicle)?
The value was 8%.

What about the “% inhibition, Tibia Cartilage Degeneration Score Zone 4” value (MIV-711 group vs vehicle) of the same compound?
Its value is -4%.

What about the “% inhibition, Total Joint CD Score” value (MIV-711 group vs vehicle) of the same compound?
The value was 8%.

What about the “decrease in cartilage degeneration scores in level 1 (anterior) of the tibia” value (dog, 30 µmol/kg vs vehicle, statistically significant) of the same compound?
Its value is 41%.

What about the “Femur Cartilage Degeneration Score Zone 1” value [1] of the same compound?
The value was 1.00 and 0.33 and 2.00 and 1.33 and 0.67.

What about the “Femur Cartilage Degeneration Score Zone 2” value [1] of the same compound?
Its value is 1.33 and 1.67 and 0.00 and 2.00 and 1.00 and 0.33 and 2.33.

And the “Femur Cartilage Degeneration Score Zone 3” value [1]?
Its value is 0.33 and 0.00 and 1.33 and 1.67.

What about the “Femur Cartilage Degeneration Score Zone 4” value [1] of the same compound?
Its value is 0.00 and 0.33.

What about the “Tibia Cartilage Degeneration Score Zone 1” value [1] of the same compound?
The value was 0.33 and 0.67 and 0.00 and 1.00.

And the “Tibia Cartilage Degeneration Score Zone 2” value [1]?
The value was 1.67 and 1.33 and 2.00 and 2.33.

And the “Tibia Cartilage Degeneration Score Zone 3” value [1]?
Its value is 1.33 and 1.00 and 1.67 and 0.67 and 0.33.

And the “Tibia Cartilage Degeneration Score Zone 4” value [1]?
Its value is 0.67 and 0.33 and 0.00 and 1.00.

What about the “Total Joint CD Score” value [1] of the same compound?
The value was 1.08 and 1.67 and 1.75 and 0.75 and 2.42 and 1.33 and 1.50 and 1.25 and 2.00 and 1.83 and 3.00.

And the “Femur Cartilage Degeneration Score Level 1” value [2]?
The value was 0.50 and 0.25 and 0.75 and 1.00.

And the “Femur Cartilage Degeneration Score Level 2” value [2]?
The value was 0.50 and 1.00 and 0.00 and 1.75 and 0.75 and 0.25.

And the “Femur Cartilage Degeneration Score Level 3” value [2]?
Its value is 0.50 and 1.00 and 0.00 and 1.50 and 0.25 and 1.25 and 0.75 and 2.00.

What about the “Femur Cartilage Degeneration Score Mean” value [2] of the same compound?
Its value is 0.50 and 0.67 and 0.83 and 0.08 and 1.33 and 0.58 and 0.33 and 0.25 and 1.58.

What about the “Tibia Cartilage Degeneration Score Level 1” value [2] of the same compound?
Its value is 0.25 and 0.00 and 0.50 and 1.25 and 0.75 and 1.00 and 1.50.

What about the “Tibia Cartilage Degeneration Score Level 2” value [2] of the same compound?
The value was 1.00 and 1.25 and 1.75 and 1.50 and 0.50.

What about the “Tibia Cartilage Degeneration Score Level 3” value [2] of the same compound?
Its value is 0.50 and 1.50 and 1.00 and 1.25 and 0.75 and 0.00.

And the “Tibia Cartilage Degeneration Score Mean” value [2]?
Its value is 0.58 and 1.00 and 0.92 and 0.67 and 1.08 and 0.75 and 1.17 and 0.42 and 1.42.
